Assay results: PMC12010937, “Evaluation of FXR Activity in Pollutants Identified in Sewage Sludge and Subsequent in Vitro and in Vivo Characterization of Metabolic Effects of Triphenyl Phosphate” (Environmental Health Perspectives, 2025)
“And” between values parts separate entries of the source, which are not always exact repeats. Equal values may be shown once. “Also recorded” adds a separate entry of the source.

Columns and labels:
[1] = biological target: T1, FXR (pCDNA3.1-hFXR, FXRE-luc) (Homo sapiens, UniProt Q96RI1); assay: cell-based; assay type: cell-based
T1 construct: host or cells: HEK 293T
T1 sequence (Q96RI1 1-486): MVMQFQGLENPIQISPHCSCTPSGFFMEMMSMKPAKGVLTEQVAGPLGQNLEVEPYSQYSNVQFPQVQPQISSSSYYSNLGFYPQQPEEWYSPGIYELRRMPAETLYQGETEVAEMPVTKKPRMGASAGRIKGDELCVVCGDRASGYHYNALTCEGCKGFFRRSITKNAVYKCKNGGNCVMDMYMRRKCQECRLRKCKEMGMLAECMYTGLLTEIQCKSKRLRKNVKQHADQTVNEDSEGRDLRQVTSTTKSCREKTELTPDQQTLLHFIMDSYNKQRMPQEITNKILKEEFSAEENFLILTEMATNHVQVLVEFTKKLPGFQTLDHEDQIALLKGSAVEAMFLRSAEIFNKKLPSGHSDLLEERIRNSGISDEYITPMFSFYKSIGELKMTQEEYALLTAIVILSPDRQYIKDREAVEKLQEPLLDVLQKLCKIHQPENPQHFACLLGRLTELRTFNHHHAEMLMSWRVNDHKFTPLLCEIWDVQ

[2] = system: PXR; settings: in vitro assays and in silico molecular docking; cited from earlier work

Structure (SMILES): O=P(Oc1ccccc1)(Oc1ccccc1)Oc1ccccc1 [TPHP, triphenyl phosphate]
- IC50 [1]: 27.4 µM
- Relative luciferase activity (%) ([1]; 0.01 μM, dose-response, replicates): 85.51% and 90.10% and 106.89%
- Relative luciferase activity (%) ([1]; 0.1 μM, dose-response, replicates): 104.74% and 89.81%
- Relative luciferase activity (%) ([1]; 0.5 μM, dose-response, replicates): 73.91% and 74.66%
- Relative luciferase activity (%) ([1]; 1 μM, dose-response, replicates): 77.48% and 70.96%
- Relative luciferase activity (%) ([1]; 5 μM, dose-response, replicates): 51.88% and 54.98% and 76.88%
- Luciferase activity compared with DMSO control (in words) ([1]; 10 μM and 25 μM, in the presence of 50 μM CDCA, HEK 293T): significantly less luciferase activity; also recorded: lowest luciferase activity
- Relative luciferase activity (%) ([1]; 10 μM compound in the presence of 50 μM CDCA, DMSO 0%, 50 μM CDCA 100%, HEK 293T, replicates): 2.5% and 7.4% and 17.9%
- Relative luciferase activity (%) ([1]; 10 μM, dose-response, replicates): 46.34% and 52.21%
- Relative luciferase activity (%) ([1]; 25 μM compound in the presence of 50 μM CDCA, DMSO 0%, 50 μM CDCA 100%, HEK 293T, replicates): -6.4% and -7.6% and -3.9%
- Relative luciferase activity (%) ([1]; 25 μM, dose-response, replicates): 2.58% and 9.91% and 5.01%
- Relative luciferase activity (%) ([1]; 50 μM, dose-response, replicates): -21.44% and -22.90% and -18.55%
- Rate of FXR inhibition at the maximum exposure concentration ([1]; HEK 293T DLR assay, maximum exposure concentration): 120.96%
- activity at 0.1 µM ([1]; HEK-293T, read-out: Relative luciferase activity (%), 0.1 μM, dose-response, replicates): 87.5%
- activity at 0.5 µM ([1]; HEK-293T, read-out: Relative luciferase activity (%), 0.5 μM, dose-response, replicates): 82.3%
- activity at 1 µM ([1]; HEK-293T, read-out: Relative luciferase activity (%), 1 μM, dose-response, replicates): 63.9%
- activity at 10 µM ([1]; HEK-293T, read-out: Relative luciferase activity (%), 10 μM, dose-response, replicates): 39.7%
- PXR activity reported (in words) [2]: agonists
